Measured values as given in patent US8642644B2, “Ophthamological drugs” (Duke University, priority 2004, dated 2014).

What was measured:
[1] = tested on: intraocular pressure (IOP); test: Effects on intraocular pressure (IOP) after topical administration to normotensive Dutch-belted rabbits (Example 15); assay type: in vivo, rabbit; conditions: for Maximum reduction of IOP (absolute) / Maximum reduction of IOP (percent): once a day for three days
Description: In order to study the utility of the compounds in the treatment of glaucoma, their effects on intraocular pressure (IOP) were investigated following administration to normotensive rabbits.
5-O-Ribitol [2,3-dichloro-4-(thiophene-2-carbonyl)]phenoxyacetate: 10% and 15% in a lanolin base.
5-O-Xylitol 4-(2-phenylacryloyl)cinnamate: 0.3% and 0.6% mixed equimolar with cysteine in solution.
11-Hydroxy-3,6,9-trioxaundecyl 4-(2-phenylacryloyl)cinnamate: 0.3% and 0.6% mixed equimolar with cysteine in solution.
Eyedrops administered topically to male Dutch-belted rabbits (3-5 kg). IOP determinations made with pneumatonometer (Medtronic Solan, Jacksonville, Fla.) as the average of three measurements per eye at each timepoint. Prior to IOP determination and drug administration, eyes were topically anesthetized with proparacaine hydrochloride, 0.5% (Bausch and Lomb, Inc, Tampa, Fla.).
5-O-Ribitol [2,3-dichloro-4-(thiophene-2-carbonyl)]phenoxyacetate: Eyedrops containing the compound were administered once a day for three days. The contralateral eye was administered lanolin base. IOP was assessed in the morning and afternoon for seven days.
5-O-Xylitol 4-(2-phenylacryloyl)cinnamate: Eyedrops containing the compound were administered twice daily for 7 days. The contralateral eye was left untreated to serve as a control. IOP was assessed concurrently with drug administration.
5-O-{(9α,11α,15R)-15-[2-Benzo[b]thiophen-2-yl]-16,17,18,19,20-pentanor-5,6,13,14-tetrahydro-9,11,15-trihydroxyprostanoyl}xylitol: Eyedrops containing the compound were administered once daily for 7 days. No drug was given on days 8 and 9. The animals were then treated once daily on days 10 through 14. IOP was assessed concurrently with drug administration.
1-O-{(9α,11α,15R)-15-[2-Benzo[b]thiophen-2-yl]-16,17,18,19,20-pentanor-5,6,13,14-tetrahydro-9,11,15-trihydroxyprostanoyl}-11-hydroxy-3,6,9-trioxaundecane: Eyedrops containing the compound were administered once daily for 5 days. The contralateral eye was left untreated to serve as a control. IOP was assessed concurrently with drug administration.
11-Hydroxy-3,6,9-trioxaundecyl 4-(2-phenylacryloyl)cinnamate: Eyedrops containing the compound were administered twice daily for 7 days. The contralateral eye was left untreated to serve as a control. IOP was assessed concurrently with drug administration.

[2] = Solubility in petrolatum/lanolin mixtures; assay type: physicochemical
intraocular pressure [3] = test: Intraocular pressure lowering by ticrynafen-ribitol ester ointment in the Dutch Belted rabbit model (Example 3); assay type: in vivo; conditions: for Maximal pressure reduction: topical, doses at 0, 24 and 48 hours
Procedure: Ticrynafen-ribitol ester was formulated as an ointment in 5, 10, and 15% concentrations. The Dutch Belted rabbit model was used to test the formulation for both pressure lowering and side effects. Baseline intraocular pressures were obtained by placing one drop of proparacaine in each eye followed by pressure measurements utilizing a Pneumotonometer®. […] The second eye was used as a control with application of lanolin ointment without drug. Repeat doses were given at 24 hour intervals for a total of three doses (0, 24, and 48 hours). Intraocular pressures were recorded every 12 hours for one week. A total of twelve rabbits received the 5% ointment, eight rabbits the 10% ointment, and eight rabbits the 15% ointment. FIG. 4 presents the 10% data with statistically significant timepoints indicated by double asterisks.

[4] = Activity against glaucoma (stated in words)
intraocular pressure [5] = test: Intraocular pressure lowering by 0.004% AR101 solution in the Dutch Belted rabbit model (Example 6); assay type: in vivo; conditions: 0.004% solution; loading dose 3 drops day 0 and 10, one drop daily days 1-7 and 10-14; versus contralateral control eye
Description: The xylitol prostaglandin ester of Formula V (also called AR101) was formulated as a 0.004% solution for topical administration. The Dutch Belted Rabbit model was used to test the formulation for both pressure lowering and side effects. Baseline intraocular pressures were obtained by placing one drop of proparacaine in each eye followed by pressure measurements with a Pneumotonometer®. One eye of each rabbit received a loading dose of 3 drops 0.004% AR101 on day 0 and day 10. One drop of AR101 was given daily on days 1-7 and 10-14. No drug was given on days 8 and 9. The contralateral control eye received balanced salt solution drops without AR101. Intraocular pressure measurements were recorded every 12 hours for two weeks.

[6] = 0.004% in solution, once daily for 5 days
[7] = 0.02% in solution, once daily for 5 days
[8] = 0.3% mixed equimolar with cysteine in solution, twice daily for 7 days
[9] = 0.6% mixed equimolar with cysteine in solution, twice daily for 7 days
[10] = 10% in lanolin base, at 36 hours
[11] = 15% in lanolin base, at 60 hours
[12] = 0.004% in solution, once daily days 1-7 and 10-14

Procedure for pig liver esterase: Since the sugar alcohol moiety imparts water-solubility to the compounds, an assay can be readily set up to determine the optimal sugar alcohol for each drug moiety based on the release rate thus: A commercially-available preparation of esterase, such as porcine liver esterase (Sigma Corp., St. Louis), is prepared at a standard concentration. The drug-sugar alcohol combination, dissolved in methanol or a methanol-water or methanol-acetonitrile combination, is added dropwise to the esterase and the rate at which the compound is released from the alcohol is determined. The analytical technique used to determine the amount of free acid will vary with the acid used, but a typical procedure would be by TLC, or reverse-phase TLC, or HPLC or by Mass Spectroscopy. One skilled in the art can readily determine the optimal analytical method for each sugar-acid pair evaluated. This assay can easily be adapted to be run in a 96-well plate format, or other high-throughput method of determining activity.

O=C(CCCCCC[C@@H]1[C@@H](CCC(O)c2cc3ccccc3s2)[C@H](O)C[C@@H]1O)OCCOCCOCCOCCO (stereo partly drawn) [1-O-{(9α,11α,15R)-15-[2-Benzo[b]thiophen-2-yl]-16,17,18,19,20-pentanor-5,6,13,14-tetrahydro-9,11,15-trihydroxyprostanoyl}-11-hydroxy-3,6,9-trioxaundecane]
Maximum reduction from untreated control [1, 6]: −2.8 mmHg | Maximum reduction from untreated control (percent) [1, 6]: 12% | Maximum reduction from untreated control [1, 7]: −3.0 mmHg | Maximum reduction from untreated control (percent) [1, 7]: 17%

C=C(C(=O)c1ccc(C=CC(=O)OCCOCCOCCOCCO)cc1)c1ccccc1 [11-Hydroxy-3,6,9-trioxaundecyl 4-(2-phenylacryloyl)cinnamate]
Maximum reduction from untreated control [1, 8]: −1.7 mmHg | Maximum reduction from untreated control (percent) [1, 8]: 8% | Maximum reduction from untreated control [1, 9]: −1.9 mmHg | Maximum reduction from untreated control (percent) [1, 9]: 8%

O=C(COc1ccc(C(=O)c2cccs2)c(Cl)c1Cl)OC[C@H](O)[C@H](O)[C@H](O)CO [Formula III, 5-O-Ribitol [2,3-dichloro-4-(thiophene-2-carbonyl)]phenoxyacetate]
Solubility in petrolatum/lanolin mixtures [2]: completely soluble | Maximum reduction of IOP (absolute) [1, 10]: −4.3 | Maximum reduction of IOP (percent) [1, 10]: 18% | Maximum reduction of IOP (absolute) [1, 11]: −3.0 | Maximum reduction of IOP (percent) [1, 11]: 13% | Maximal pressure reduction (intraocular pressure [3]; 5% ointment, maximum at 54 hours): 11% | Maximal pressure reduction (intraocular pressure [3]; 10% ointment, maximum at 36 hours): 18% | Maximal pressure reduction (intraocular pressure [3]; 15% ointment, maximum at 60 hours): 13% | Reduction of intraocular pressure (IOP), in words (intraocular pressure [3]; Dutch-Belted white rabbits, petrolatum/lanolin ointment): reduces intraocular pressure (IOP) in a dose-dependent fashion

O=C(O)CCCCCC[C@@H]1[C@@H](CC[C@@H](O)c2cc3ccccc3s2)[C@H](O)C[C@@H]1O [Formula II]
Activity against glaucoma, in words [4]: strong activity against glaucoma

O=C(O)COc1ccc(C(=O)c2cccs2)c(Cl)c1Cl [Formula IV, Ticrynafen]
Activity against glaucoma, in words [4]: little or no activity

O=C(CCCCCC[C@@H]1[C@@H](CC[C@@H](O)c2cc3ccccc3s2)[C@H](O)C[C@@H]1O)OC[C@@H](O)[C@H](O)[C@@H](O)CO [Formula V, 5-O-{(9α,11α,15R)-15-[2-Benzo[b]thiophen-2-yl]-16,17,18,19,20-pentanor-5,6,13,14-tetrahydro-9,11,15-trihydroxyprostanoyl}xylitol]
Statistically significant pressure reductions between eyes (days) (intraocular pressure [5]): Statistically significant pressure reductions between eyes were observed on days 3, 7, and 11 | Significant reductions of IOP from baseline (days) [1, 12]: Significant reductions from baseline on days 2, 3, 5, 11, and 12 | Significant reductions of IOP from baseline and untreated control (days) [1, 12]: Significant reductions from baseline and untreated control on days 3, 5, and 11 | Hydrolysis by pig liver esterase (pig liver esterase): readily hydrolyzed

C=C(C(=O)c1ccc(/C=C/C(=O)OC[C@@H](O)[C@H](O)[C@@H](O)CO)cc1)c1ccccc1 [Formula VIII, 5-O-Xylitol 4-(2-phenylacryloyl)cinnamate]
Maximum reduction from untreated control [1, 8]: −2.4 mmHg | Maximum reduction from untreated control (percent) [1, 8]: 11% | Maximum reduction from untreated control [1, 9]: −2.4 mmHg | Maximum reduction from untreated control (percent) [1, 9]: 13%
